Test results: ChEMBL document CHEMBL5291721, “A preclinical secondary pharmacology resource illuminates target-adverse drug reaction associations of marketed drugs” (Nat Commun, 2023)

Legend:
D(3) dopamine receptor = D(3) dopamine receptor (Homo sapiens, UniProt P35462)
[1] = biological target: T1, 5-hydroxytryptamine receptor 1A (Homo sapiens, UniProt P08908)
T1 sequence (P08908 whole entry): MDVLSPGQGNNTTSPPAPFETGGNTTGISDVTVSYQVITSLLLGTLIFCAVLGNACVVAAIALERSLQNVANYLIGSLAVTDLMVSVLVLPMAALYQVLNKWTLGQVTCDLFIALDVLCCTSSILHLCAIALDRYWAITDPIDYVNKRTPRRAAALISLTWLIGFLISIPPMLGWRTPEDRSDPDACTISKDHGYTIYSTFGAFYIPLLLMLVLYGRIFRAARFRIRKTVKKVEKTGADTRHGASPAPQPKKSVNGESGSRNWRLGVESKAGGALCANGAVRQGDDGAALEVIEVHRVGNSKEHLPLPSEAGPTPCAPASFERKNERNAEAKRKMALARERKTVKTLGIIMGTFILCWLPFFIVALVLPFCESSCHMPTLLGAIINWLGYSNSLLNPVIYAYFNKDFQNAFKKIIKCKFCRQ

[2] = biological target: T2, Amine oxidase [flavin-containing] A (Homo sapiens, UniProt P21397); format: functional
T2 sequence (P21397 whole entry): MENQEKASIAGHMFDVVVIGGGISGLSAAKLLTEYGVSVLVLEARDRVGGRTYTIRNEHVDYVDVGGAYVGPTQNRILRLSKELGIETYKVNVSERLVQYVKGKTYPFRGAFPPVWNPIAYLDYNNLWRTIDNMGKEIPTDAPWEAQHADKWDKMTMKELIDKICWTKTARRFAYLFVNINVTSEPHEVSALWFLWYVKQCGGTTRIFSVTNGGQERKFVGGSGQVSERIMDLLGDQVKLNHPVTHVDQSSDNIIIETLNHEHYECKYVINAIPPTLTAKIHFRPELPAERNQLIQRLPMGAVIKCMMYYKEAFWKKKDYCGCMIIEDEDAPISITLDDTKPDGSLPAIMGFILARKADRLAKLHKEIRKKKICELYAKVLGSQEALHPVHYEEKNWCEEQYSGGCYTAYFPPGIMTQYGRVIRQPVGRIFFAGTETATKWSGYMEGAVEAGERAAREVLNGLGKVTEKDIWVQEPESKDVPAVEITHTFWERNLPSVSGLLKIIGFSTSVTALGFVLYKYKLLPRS

Mu-type opioid receptor = Mu-type opioid receptor (Homo sapiens, UniProt P35372)
[3] = biological target: Sodium-dependent noradrenaline transporter (Homo sapiens, UniProt P23975)
Thromboxane A2 receptor [4] = biological target: T3, Thromboxane A2 receptor (Homo sapiens, UniProt P21731); format: functional, cell-based
T3 sequence (P21731 whole entry): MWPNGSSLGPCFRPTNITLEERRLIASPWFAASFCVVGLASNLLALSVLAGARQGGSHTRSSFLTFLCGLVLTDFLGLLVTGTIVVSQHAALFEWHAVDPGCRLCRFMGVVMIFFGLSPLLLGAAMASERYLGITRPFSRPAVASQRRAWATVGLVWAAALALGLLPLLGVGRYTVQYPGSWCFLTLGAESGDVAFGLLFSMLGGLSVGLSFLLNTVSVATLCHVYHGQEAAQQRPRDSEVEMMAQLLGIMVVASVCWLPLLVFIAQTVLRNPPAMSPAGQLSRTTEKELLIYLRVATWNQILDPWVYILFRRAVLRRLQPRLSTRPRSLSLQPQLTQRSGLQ

Histamine H3 receptor = Histamine H3 receptor (Homo sapiens, UniProt Q9Y5N1)
[5] = biological target: Prostaglandin G/H synthase 1 (Homo sapiens, UniProt P23219); format: functional
[6] = biological target: T4, Alpha-2A adrenergic receptor (Homo sapiens, UniProt P08913)
T4 sequence (P08913 whole entry): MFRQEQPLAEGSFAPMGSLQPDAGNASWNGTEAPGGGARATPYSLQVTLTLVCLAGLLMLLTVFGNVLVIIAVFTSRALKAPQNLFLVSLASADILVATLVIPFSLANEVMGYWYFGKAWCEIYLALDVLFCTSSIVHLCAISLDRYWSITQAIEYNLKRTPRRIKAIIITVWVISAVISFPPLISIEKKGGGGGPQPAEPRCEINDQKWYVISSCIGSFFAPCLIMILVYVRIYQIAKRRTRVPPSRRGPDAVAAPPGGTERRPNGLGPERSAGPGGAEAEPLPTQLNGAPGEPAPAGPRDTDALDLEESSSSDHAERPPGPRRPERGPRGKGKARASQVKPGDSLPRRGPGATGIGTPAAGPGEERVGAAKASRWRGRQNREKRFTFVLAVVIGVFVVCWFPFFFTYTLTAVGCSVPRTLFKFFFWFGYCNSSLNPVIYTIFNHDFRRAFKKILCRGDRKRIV

Prothrombin = Prothrombin (Homo sapiens, UniProt P00734); format: functional
Thromboxane A2 receptor [7] = biological target: T3, Thromboxane A2 receptor; format: functional, cell-based; remark: listed apart in the source
[8] = biological target: T5, Muscarinic acetylcholine receptor M2 (Homo sapiens, UniProt P08172)
T5 sequence (P08172 whole entry): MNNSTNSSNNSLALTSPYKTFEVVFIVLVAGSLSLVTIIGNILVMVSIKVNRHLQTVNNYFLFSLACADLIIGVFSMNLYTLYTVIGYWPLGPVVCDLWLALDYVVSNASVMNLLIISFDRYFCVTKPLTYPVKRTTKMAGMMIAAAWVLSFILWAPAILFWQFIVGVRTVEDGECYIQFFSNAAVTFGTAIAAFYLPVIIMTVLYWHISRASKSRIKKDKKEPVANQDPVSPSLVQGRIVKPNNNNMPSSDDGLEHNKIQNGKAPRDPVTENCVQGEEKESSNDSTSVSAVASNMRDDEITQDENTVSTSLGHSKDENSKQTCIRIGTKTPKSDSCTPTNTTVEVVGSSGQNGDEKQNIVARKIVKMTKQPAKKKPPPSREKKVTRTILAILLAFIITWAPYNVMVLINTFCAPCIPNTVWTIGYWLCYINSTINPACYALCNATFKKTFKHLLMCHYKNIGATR

D(1A) dopamine receptor = D(1A) dopamine receptor (Homo sapiens, UniProt P21728)
Acetylcholinesterase = Acetylcholinesterase (Homo sapiens, UniProt P22303); format: functional
Also: assay procedure not described here.

Prostaglandin G/H synthase 1, sequence (P23219 whole entry): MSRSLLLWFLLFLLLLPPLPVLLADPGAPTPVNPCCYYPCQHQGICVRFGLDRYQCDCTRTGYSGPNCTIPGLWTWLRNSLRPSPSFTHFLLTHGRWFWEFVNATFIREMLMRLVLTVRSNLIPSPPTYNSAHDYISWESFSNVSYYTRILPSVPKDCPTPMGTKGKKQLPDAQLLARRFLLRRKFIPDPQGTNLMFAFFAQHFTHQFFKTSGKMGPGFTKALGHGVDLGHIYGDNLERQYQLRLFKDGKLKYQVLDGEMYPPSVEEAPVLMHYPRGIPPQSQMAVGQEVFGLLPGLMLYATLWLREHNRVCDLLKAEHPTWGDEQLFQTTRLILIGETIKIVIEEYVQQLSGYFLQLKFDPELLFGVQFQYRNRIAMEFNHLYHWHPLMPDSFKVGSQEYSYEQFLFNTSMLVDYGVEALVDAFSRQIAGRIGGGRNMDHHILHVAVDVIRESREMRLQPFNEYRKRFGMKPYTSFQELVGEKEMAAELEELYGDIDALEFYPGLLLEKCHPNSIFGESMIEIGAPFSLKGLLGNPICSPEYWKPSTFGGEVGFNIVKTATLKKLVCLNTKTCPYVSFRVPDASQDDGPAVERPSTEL
D(3) dopamine receptor, sequence (P35462 whole entry): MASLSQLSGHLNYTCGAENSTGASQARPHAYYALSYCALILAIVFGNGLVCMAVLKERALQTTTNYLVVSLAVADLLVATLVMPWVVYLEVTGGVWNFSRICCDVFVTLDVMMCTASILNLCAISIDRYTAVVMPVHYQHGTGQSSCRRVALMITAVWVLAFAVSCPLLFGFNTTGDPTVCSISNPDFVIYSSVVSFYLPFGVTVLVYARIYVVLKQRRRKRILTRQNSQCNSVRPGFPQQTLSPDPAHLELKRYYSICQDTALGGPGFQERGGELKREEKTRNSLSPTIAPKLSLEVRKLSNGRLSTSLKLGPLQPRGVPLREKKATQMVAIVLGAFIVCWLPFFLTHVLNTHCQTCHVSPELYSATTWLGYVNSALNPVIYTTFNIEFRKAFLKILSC
Mu-type opioid receptor, sequence (P35372 whole entry): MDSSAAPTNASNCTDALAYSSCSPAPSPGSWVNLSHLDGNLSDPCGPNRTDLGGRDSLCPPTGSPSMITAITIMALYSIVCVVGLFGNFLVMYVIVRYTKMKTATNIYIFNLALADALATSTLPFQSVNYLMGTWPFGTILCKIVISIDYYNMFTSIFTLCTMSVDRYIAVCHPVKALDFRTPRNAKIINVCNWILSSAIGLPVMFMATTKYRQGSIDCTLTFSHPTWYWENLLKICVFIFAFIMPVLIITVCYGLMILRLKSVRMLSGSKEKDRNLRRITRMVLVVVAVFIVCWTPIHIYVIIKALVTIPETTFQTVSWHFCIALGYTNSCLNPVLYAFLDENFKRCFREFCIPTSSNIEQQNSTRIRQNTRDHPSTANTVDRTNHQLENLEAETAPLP
Sodium-dependent noradrenaline transporter, sequence (P23975 whole entry): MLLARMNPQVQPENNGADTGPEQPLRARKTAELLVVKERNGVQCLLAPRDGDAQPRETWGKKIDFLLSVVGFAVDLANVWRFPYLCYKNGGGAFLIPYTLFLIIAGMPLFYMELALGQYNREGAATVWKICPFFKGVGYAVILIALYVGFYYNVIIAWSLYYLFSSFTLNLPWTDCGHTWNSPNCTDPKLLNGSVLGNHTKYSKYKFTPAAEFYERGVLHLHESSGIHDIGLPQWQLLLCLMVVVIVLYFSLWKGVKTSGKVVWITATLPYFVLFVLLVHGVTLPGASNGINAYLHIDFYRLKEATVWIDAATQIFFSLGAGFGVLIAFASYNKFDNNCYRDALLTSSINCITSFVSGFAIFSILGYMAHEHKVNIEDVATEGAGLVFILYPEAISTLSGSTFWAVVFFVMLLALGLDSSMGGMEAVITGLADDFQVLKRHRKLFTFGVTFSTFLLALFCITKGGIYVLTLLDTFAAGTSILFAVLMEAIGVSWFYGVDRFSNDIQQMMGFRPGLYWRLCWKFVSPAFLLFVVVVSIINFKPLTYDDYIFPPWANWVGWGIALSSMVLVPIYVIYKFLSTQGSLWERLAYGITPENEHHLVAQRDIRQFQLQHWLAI
Acetylcholinesterase, sequence (P22303 whole entry): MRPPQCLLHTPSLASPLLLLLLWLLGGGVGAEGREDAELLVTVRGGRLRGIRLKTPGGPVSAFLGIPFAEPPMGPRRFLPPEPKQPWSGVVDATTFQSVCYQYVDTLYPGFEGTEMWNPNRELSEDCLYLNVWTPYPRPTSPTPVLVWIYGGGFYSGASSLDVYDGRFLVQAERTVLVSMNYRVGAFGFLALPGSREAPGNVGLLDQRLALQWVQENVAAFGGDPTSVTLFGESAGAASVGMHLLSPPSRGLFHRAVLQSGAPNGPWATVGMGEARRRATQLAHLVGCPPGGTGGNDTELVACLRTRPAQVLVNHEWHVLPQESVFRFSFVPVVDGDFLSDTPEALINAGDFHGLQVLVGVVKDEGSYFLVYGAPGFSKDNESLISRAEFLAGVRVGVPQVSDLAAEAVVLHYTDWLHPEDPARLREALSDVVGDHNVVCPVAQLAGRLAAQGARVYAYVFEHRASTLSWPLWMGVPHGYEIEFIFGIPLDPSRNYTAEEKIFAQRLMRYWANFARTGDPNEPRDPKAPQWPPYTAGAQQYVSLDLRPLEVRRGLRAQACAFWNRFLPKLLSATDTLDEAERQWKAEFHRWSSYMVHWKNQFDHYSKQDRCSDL
Histamine H3 receptor, sequence (Q9Y5N1 whole entry): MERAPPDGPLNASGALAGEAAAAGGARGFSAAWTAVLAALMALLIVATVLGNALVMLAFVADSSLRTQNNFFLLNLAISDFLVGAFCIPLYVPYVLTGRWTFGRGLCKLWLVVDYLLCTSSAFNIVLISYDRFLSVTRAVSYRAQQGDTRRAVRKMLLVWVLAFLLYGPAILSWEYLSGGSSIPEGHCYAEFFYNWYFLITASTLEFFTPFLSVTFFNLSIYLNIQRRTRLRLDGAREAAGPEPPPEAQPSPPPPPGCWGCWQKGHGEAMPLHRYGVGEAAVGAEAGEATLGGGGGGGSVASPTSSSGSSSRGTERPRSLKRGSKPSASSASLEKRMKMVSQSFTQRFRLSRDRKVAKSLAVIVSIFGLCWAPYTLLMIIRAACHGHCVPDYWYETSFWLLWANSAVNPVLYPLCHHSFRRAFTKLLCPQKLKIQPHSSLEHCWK
D(1A) dopamine receptor, sequence (P21728 whole entry): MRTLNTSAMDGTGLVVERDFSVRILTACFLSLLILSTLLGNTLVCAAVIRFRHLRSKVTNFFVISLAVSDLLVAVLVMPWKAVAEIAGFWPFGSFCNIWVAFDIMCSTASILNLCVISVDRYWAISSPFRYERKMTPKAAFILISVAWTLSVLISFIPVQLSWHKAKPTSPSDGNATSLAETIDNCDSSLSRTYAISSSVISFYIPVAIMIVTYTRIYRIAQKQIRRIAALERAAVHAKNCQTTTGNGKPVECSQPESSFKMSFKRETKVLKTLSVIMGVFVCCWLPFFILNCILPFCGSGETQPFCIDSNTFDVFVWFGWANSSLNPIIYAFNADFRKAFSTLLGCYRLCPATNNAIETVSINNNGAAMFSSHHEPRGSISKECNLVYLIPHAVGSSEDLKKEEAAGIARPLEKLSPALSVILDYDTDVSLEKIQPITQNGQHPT

SMILES	AC50 (D(3) dopamine receptor)	AC50 [1]	AC50 [2]	AC50 (Mu-type opioid receptor)	AC50 [3]	AC50 (Thromboxane A2 receptor [4])	AC50 (Histamine H3 receptor)	AC50 [5]	AC50 [6]	AC50 (Prothrombin)	AC50 (Thromboxane A2 receptor [7])	AC50 [8]	AC50 (D(1A) dopamine receptor)	AC50 (Acetylcholinesterase)
CCCC(=O)O[C@H]1[C@H](C)O[C@@H](O[C@H]2[C@H](N(C)C)[C@@H](O)[C@H](O[C@H]3[C@@H](CC=O)C[C@@H](C)[C@@H](O)/C=C/C=C/C[C@@H](C)OC(=O)C[C@@H](O)[C@@H]3OC)O[C@@H]2C)C[C@@]1(C)OC(=O)CC [ROKITAMYCIN]	> 30 µM	> 30 µM	> 30 µM	> 30 µM	> 30 µM	> 30 µM	> 30 µM	> 30 µM	> 30 µM	> 30 µM	> 30 µM	> 30 µM	> 30 µM	> 30 µM
CCOC(=O)[C@H](CCc1ccccc1)N[C@H]1CS[C@H](c2cccs2)CN(CC(=O)O)C1=O [TEMOCAPRIL]	> 30 µM	> 30 µM	> 30 µM	> 30 µM	> 30 µM	> 30 µM	> 30 µM	> 30 µM	> 30 µM	> 30 µM	> 30 µM	> 30 µM	> 30 µM	> 30 µM
Oc1c(I)cc(Cl)c2cccnc12 [CLIOQUINOL]	> 10 µM	> 30 µM	> 30 µM	> 30 µM	2.79 µM	> 30 µM	> 30 µM	> 30 µM	> 30 µM	> 30 µM	> 10 µM	> 30 µM	> 30 µM	> 30 µM
NC(=O)NCCC[C@H](N)C(=O)O [L-CITRULLINE]	> 30 µM	> 30 µM	> 30 µM	> 30 µM	> 30 µM	> 30 µM	> 30 µM	> 30 µM	> 30 µM	> 30 µM	> 30 µM	> 30 µM	> 30 µM	> 30 µM
COCCCOc1ccnc(C[S+]([O-])c2nc3ccccc3[nH]2)c1C (centres undefined) [RABEPRAZOLE]	> 30 µM	12.8 µM	> 30 µM	7.93 µM	17.9 µM	> 30 µM	> 30 µM	25.4 µM	> 30 µM	> 30 µM	> 30 µM	> 30 µM	> 30 µM	16.7 µM
CC(c1ccc(Cl)c(Cl)c1)N1N=C(N)CC1=O (centres undefined) [MUZOLIMINE]	> 30 µM	> 30 µM	> 30 µM	> 30 µM	> 30 µM	> 30 µM	> 30 µM	13.3 µM	> 30 µM	> 30 µM	> 30 µM	> 30 µM	> 30 µM	> 30 µM
